Measurements reported in US8669271B2 (Boehringer Ingelheim International GmbH, priority 2010, dated 2014).

Target: T1, human GPR119 (Homo sapiens, UniProt Q8TDV5)
T1 construct: expression vector for human GPR119 cDNA (Acc. No. NP_848566); expressed in transfected cells
T1 sequence (Q8TDV5 1-335): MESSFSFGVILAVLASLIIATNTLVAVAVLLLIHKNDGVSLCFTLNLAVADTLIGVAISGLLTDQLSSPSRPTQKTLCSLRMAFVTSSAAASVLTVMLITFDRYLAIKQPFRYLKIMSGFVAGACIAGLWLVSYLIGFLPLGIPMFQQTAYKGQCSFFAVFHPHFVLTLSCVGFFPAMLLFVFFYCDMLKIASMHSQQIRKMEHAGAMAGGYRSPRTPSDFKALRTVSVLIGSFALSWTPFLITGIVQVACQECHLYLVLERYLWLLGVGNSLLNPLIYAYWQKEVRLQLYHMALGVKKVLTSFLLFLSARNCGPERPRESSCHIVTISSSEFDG
Test: AlphaScreen cAMP assay in Min-6/hGPR119 cells (activation of GPR119, intracellular cAMP)
Assay type: cell-based
Settings: MIN6 cells stably transfected with human GPR119; cAMP by AlphaScreen after 45 minutes incubation at room temperature
Description: The compounds of formula I according to the invention modulate the activity of the G-protein-coupled receptor GPR119. The effect of the compounds on the activation of GPR119 and on the stimulation of intracellular cAMP concentration is determined using the AlphaScreen cAMP Assay Kit (Cat.No.#6760625R) made by PerkinElmer.
MIN6 cells [Miyazaki J et al. Endocrinology. 1990 July; 127(1):126-32] are stably transfected with an expression vector for human GPR119 cDNA (Acc. No. NP_848566). Min-6/hGPR119 cells are cultured in DMEM, 10% FBS, 50 μM β-mercaptoethanol, 0.3 mg/mL Geniticin, 2 mM GlutaMAX at 37° C. 5% CO2. For the assay, the cells are seeded in Optiplates (white, 384-well, 160W— barcoded, TC, sterile with lid, Cat.No.#6007688 (Perkin Elmer); 10000 cells/well; 50 μl). The plates covered with lids are then incubated for 24 hours at 37° C./5% CO2. After the medium is aspirated from the wells completely, 10 μl of the test compound are added, the compounds are diluted using stimulating buffer (140 mM NaCl, 3.6 mM KCl, 0.5 mM NaH2PO4, 0.5 mM MgSO4, 1.5 mM CaCl2, 10 mM Hepes, 5 mM NaHCO3; pH 7.4. 0.5 mM IBMX and 0.1% BSA, the final DMSO concentration is 1%). After 45 minutes incubation at room temperature (approx. 20° C.), the cAMP concentrations are determined using the AlphaScreen cAMP Assay Kit (Cat.No.#6760625R from PerkinElmer).

EC50 [nM]	Structure (SMILES)
14	CC(C)(C)OC(=O)N1CCC(C2Cc3cc(-c4ccc(CS(C)(=O)=O)cc4F)ncc3O2)CC1 (single isomer, unassigned) [Example 75]
582	Cc1nn(C)cc1-c1ccc2c(c1)CC(C1CCN(C(=O)OC(C)C)CC1)O2 (centres unmarked) [Example 171]
18	CS(=O)(=O)c1ccc(-c2ccc3c(c2)CC(C2CCN(C(=O)OC4CCC4)CC2)O3)cc1 (centres unmarked) [Example 5, 4-[5-(4-Methanesulfonyl-phenyl)-2,3-dihydro-benzofuran-2-yl]-piperidine-1-carboxylic acid cyclobutyl ester]
13	CC(C)(C)OC(=O)N1CCC(C2Cc3cc(-c4ccc(S(C)(=O)=O)cn4)ccc3O2)CC1 (centres unmarked) [Example 14, 4-[5-(5-Methanesulfonyl-pyridin-2-yl)-2,3-dihydro-benzofuran-2-yl]-piperidine-1-carboxylic acid tert-butyl ester]
17	CC(C)(C)OC(=O)N1CCC(C2Cc3cc(-c4ccc(CS(C)(=O)=O)cc4F)ncc3O2)CC1 (centres unmarked) [Example 35, 4-[5-(2-Fluoro-4-methanesulfonylmethyl-phenyl)-2,3-dihydro-furo[2,3-c]pyridin-2-yl]-piperidine-1-carboxylic acid tert-butyl ester]
110	CC(O)CCNC(=O)c1ccc(-c2ccc3c(c2)CC(C2CCN(C(=O)OC(C)C)CC2)O3)cc1 (centres unmarked) [Example 125]
7	CC(C)(C)OC(=O)N1CCC(C2Cc3cc(C4=CCN(S(C)(=O)=O)CC4)ccc3O2)CC1 (centres unmarked) [Example 94, 4-[5-(1-Methanesulfonyl-1,2,3,6-tetrahydro-pyridin-4-yl)-2,3-dihydro-benzofuran-2-yl]-piperidine-1-carboxylic acid tert-butyl ester]
118	COc1cc(-c2ccc3c(c2)CC(C2CCN(C(=O)OC(C)C)CC2)O3)ccc1NC(C)=O (centres unmarked) [Example 179]
16	CC(C)(C)OC(=O)N1CCC(C2Cc3cc(-c4ccnc(C#N)c4)ncc3O2)CC1 (centres unmarked) [Example 55, 4-[5-(2-Cyano-pyridin-4-yl)-2,3-dihydro-furo[2,3-c]pyridin-2-yl]-piperidine-1-carboxylic acid tert-butyl ester]
49	Cc1cc(-c2cc3c(cn2)OC(C2CCN(C(=O)OC(C)(C)C)CC2)C3)ccn1 (centres unmarked) [Example 52, 4-[5-(2-Methyl-pyridin-4-yl)-2,3-dihydro-furo[2,3-c]pyridin-2-yl]-piperidine-1-carboxylic acid tert-butyl ester]
15	CS(=O)(=O)N1CC=C(c2cc3c(cn2)OC(C2CCN(C(=O)OC4CCC4)CC2)C3)CC1 (centres unmarked) [Example 96, 4-[5-(1-Methanesulfonyl-1,2,3,6-tetrahydro-pyridin-4-yl)-2,3-dihydro-furo[2,3-c]pyridin-2-yl]-piperidine-1-carboxylic acid cyclobutyl ester]
190	CC(C)OC(=O)N1CCC(C2Cc3cc(-c4cncs4)ccc3O2)CC1 (centres unmarked) [Example 166]
100	CC(C)OC(=O)N1CCC(C2Cc3cc(-c4ccc(CC(=O)NCC#N)cc4)ccc3O2)CC1 (centres unmarked) [Example 134]
1910	CC(C)OC(=O)N1CCC(C2Cc3cc(-c4cnn(C)c4)ccc3O2)CC1 (centres unmarked) [Example 168]
32	CC(C)OC(=O)N1CCC(C2Cc3cc(-c4ccc(S(C)(=O)=O)cc4)ccc3O2)CC1 (centres unmarked) [Example 1, 4-[5-(4-Methanesulfonyl-phenyl)-2,3-dihydro-benzofuran-2-yl]-piperidine-1-carboxylic acid isopropyl ester]
17	CC(C)OC(=O)N1CCC(C2Cc3cc(C4=CCN(S(C)(=O)=O)CC4)ncc3O2)CC1 (centres unmarked) [Example 95, 4-[5-(1-Methanesulfonyl-1,2,3,6-tetrahydro-pyridin-4-yl)-2,3-dihydro-furo[2,3-c]pyridin-2-yl]-piperidine-1-carboxylic acid isopropyl ester]
31	CS(=O)(=O)Cc1ccc(-c2cc3c(cn2)OC(C2CCN(C(=O)OC4CCC4)CC2)C3)cc1 (centres unmarked) [Example 61, 4-[5-(4-Methanesulfonylmethyl-phenyl)-2,3-dihydro-furo[2,3-c]pyridin-2-yl]-piperidine-1-carboxylic acid cyclobutyl ester]
222	CC(C)(C)OC(=O)N1CCC(C2Cc3cc(-c4ccnc(C(F)(F)F)c4)ncc3O2)CC1 (centres unmarked) [Example 56, 4-[5-(2-Trifluoromethyl-pyridin-4-yl)-2,3-dihydro-furo[2,3-c]pyridin-2-yl]-piperidine-1-carboxylic acid tert-butyl ester]
34	CC(C)(C)OC(=O)N1CCC(C2Cc3cc(-c4ccncc4)ncc3O2)CC1 (centres unmarked) [Example 41, 4-(5-Pyridin-4-yl-2,3-dihydro-furo[2,3-c]pyridin-2-yl)-piperidine-1-carboxylic acid tert-butyl ester]

EC50 [nM]	Structure (SMILES)
374	CC(C)OC(=O)N1CCC(C2Cc3cc(-c4ccc(C(F)(F)F)nc4)ccc3O2)CC1 (centres unmarked) [Example 117]
1120	CC(C)OC(=O)N1CCC(C2Cc3cc(-c4cccc(S(C)(=O)=O)c4)ccc3O2)CC1 (centres unmarked) [Example 107]
489	CC(C)OC(=O)N1CCC(C2Cc3cc(-c4cnccn4)ccc3O2)CC1 (centres unmarked) [Example 176]
186	CC(C)OC(=O)N1CCC(C2Cc3cc(-c4cccc(C#N)c4)ccc3O2)CC1 (centres unmarked) [Example 103, 4-[5-(3-Cyano-phenyl)-2,3-dihydro-benzofuran-2-yl]-piperidine-1-carboxylic acid isopropyl ester]
95	CC(C)OC(=O)N1CCC(C2Cc3cc(-c4ccc(C(=O)N5CCC(O)C5)cc4)ccc3O2)CC1 (centres unmarked) [Example 131]
51	CC1(OC(=O)N2CCC(C3Cc4cc(-c5ccc(CS(C)(=O)=O)cc5)ncc4O3)CC2)CC1 (centres unmarked) [Example 64, 4-[5-(4-Methanesulfonylmethyl-phenyl)-2,3-dihydro-furo[2,3-c]pyridin-2-yl]-piperidine-1-carboxylic acid 1-methyl-cyclopropyl ester]
201	CC(=O)Nc1ncc(-c2ccc3c(c2)CC(C2CCN(C(=O)OC(C)C)CC2)O3)s1 (centres unmarked) [Example 177]
269	CC(C)(C)OC(=O)N1CCC(C2Cc3cc(-c4ccncc4C#N)ccc3O2)CC1 (centres unmarked) [Example 43, 4-[5-(3-Cyano-pyridin-4-yl)-2,3-dihydro-benzofuran-2-yl]-piperidine-1-carboxylic acid tert-butyl ester]
31	CC(C)OC(=O)N1CCC(C2Cc3cc(-c4ccc(CC(=O)N(C)CC#N)cc4)ccc3O2)CC1 (centres unmarked) [Example 160]
62	CC(C)OC(=O)N1CCC(C2Cc3cc(-c4ccc(CC(=O)N5CCOCC5)cc4)ccc3O2)CC1 (centres unmarked) [Example 150]
57	COC1CCN(C(=O)Cc2ccc(-c3ccc4c(c3)CC(C3CCN(C(=O)OC(C)C)CC3)O4)cc2)CC1 (centres unmarked) [Example 128]
15	CC(C)OC(=O)N1CCC(C2Cc3cc(-c4ccc(S(C)(=O)=O)c(F)c4)ccc3O2)CC1 (centres unmarked) [Example 118]
98	CC(C)OC(=O)N1CCC(C2Cc3cc(-c4ccc(CC(=O)NCC5CCCO5)cc4)ccc3O2)CC1 (centres unmarked) [Example 154]
208	CC(C)OC(=O)N1CCC(C2Cc3cc(-c4ccc(CC(=O)NCc5cocn5)cc4)ccc3O2)CC1 (centres unmarked) [Example 142]
277	CC(C)OC(=O)N1CCC(C2Cc3cc(-c4ccc(CC(=O)NCC5COCCO5)cc4)ccc3O2)CC1 (centres unmarked) [Example 138]
48	CC(C)S(=O)(=O)N1CCN(c2cc3c(cn2)OC(C2CCN(C(=O)OC(C)(C)C)CC2)C3)CC1 (centres unmarked) [Example 99, 4-{5-[4-(Propane-2-sulfonyl)-piperazin-1-yl]-2,3-dihydro-furo[2,3-c]pyridin-2-yl}-piperidine-1-carboxylic acid tert-butyl ester]
21	CCNC(=O)c1ccc(-c2cc3c(cn2)OC(C2CCN(C(=O)OC(C)(C)C)CC2)C3)cc1 (centres unmarked) [Example 32, 4-[5-(4-Ethylcarbamoyl-phenyl)-2,3-dihydro-furo[2,3-c]pyridin-2-yl]-piperidine-1-carboxylic acid tert-butyl ester]
410	CC(C)(C)OC(=O)N1CCC(C2Cc3cc(-c4cccnc4)ncc3O2)CC1 (centres unmarked) [Example 45, 4-(5-Pyridin-3-yl-2,3-dihydro-furo[2,3-c]pyridin-2-yl)-piperidine-1-carboxylic acid tert-butyl ester]
84	CC(C)(C)OC(=O)N1CCC(C2Cc3cc(-c4ccc(S(N)(=O)=O)cc4)ncc3O2)CC1 (centres unmarked) [Example 30, 4-[5-(4-Sulfamoyl-phenyl)-2,3-dihydro-furo[2,3-c]pyridin-2-yl]-piperidine-1-carboxylic acid tert-butyl ester]
